Data on three compounds can be found in ChEMBL document CHEMBL1201862, “PubChem BioAssay data set” (2004).

Assay in all cases: NCI-60 cell line screen, 48 h
The subject of assay [1] is A498.
The subject of assay [2] is DU-145.
For assay [3], the system named is EKVX.
The subject of assay [4] is HCT-116.
Assay [5] has as its system HOP-62.
The test system of assay [6] is HT-29.
Assay [7] has as its system K562.
Assay [8] concerns KM-20L2.
For assay [9], the system named is MDA-N.
In assay [10] the test system is NCI-H23.
Assay [11] concerns NCI-H522.
Assay [12] concerns OVCAR-5.
For assay [13], the system named is PC-3.
Assay [14] deals with SK-MEL-28.
The test system of assay [15] is SNB-75.
Assay [16] has as its system SW-620.
In assay [17] the test system is TK-10.
Assay [18] relates to UACC-62.
For assay [19], the system named is UO-31.

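Values below derive from 48-hour exposures of cells grown in 96-well plates, with endpoints linearly interpolated between the two concentrations bracketing the appropriate inhibition level. GI50 is the concentration that inhibits growth by half.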 Activity calls are given as the source filed them. Cut-off read from the data, not from the text of the source: active = GI50 up to about 1.1 µM and inactive = higher.

Turning to `COC(=O)c1cc(CNCCc2c[nH]c3ccccc23)on1`, the GI50 in assay [1], in [2], in assay [3], in assay [4], in assay [5] and in assay [6] was > 100 µM (inactive) throughout. The GI50 in assay [7] was > 100 µM (inactive); in assay [8], > 100 µM (inactive); in assay [9], > 100 µM (inactive); in assay [10], > 100 µM (inactive); in assay [11] it was 29.6 µM (inactive); in [12], > 100 µM (inactive). Moreover, the GI50 in assay [13] is > 100 µM (inactive); in assay [14], > 100 µM (inactive); in [15], > 65 µM (inactive); in [16], > 100 µM (inactive); in assay [17] it was > 100 µM (inactive); in assay [18] it was > 100 µM (inactive). Further, the GI50 in assay [19] was > 100 µM (inactive).

As to `Cn1c2c([N+](=O)[O-])[se]nc2c(=O)n1-c1ccc([N+](=O)[O-])cc1`, the GI50 is 11.4 µM (inactive) in assay [1]; 2.38 µM (inactive) in [3]; 0.887 µM (active) in [4]; 3.97 µM (inactive) in assay [5]; 2.74 µM (inactive) in assay [6]; 0.0664 µM (active) in [7]. The GI50 in [8] was 6.9 µM (inactive); in assay [10], 1.98 µM (inactive); in [11], 1.7 µM (inactive); in [12], 2.12 µM (inactive); in assay [14] it was 2.11 µM (inactive); in [15] it was 4.03 µM (inactive). In addition, the GI50 in assay [16] is 0.357 µM (active); in assay [17] it was 7.55 µM (inactive); in assay [18] it was 1.6 µM (inactive); in assay [19] it was 1.91 µM (inactive).

Take `O=C(O)CCC(=O)N1c2ccccc2CC1c1c[nH]c2ccccc12` (stereo unspecified): the GI50 in assay [1], in assay [3], in assay [4], in assay [5], in [6] and in assay [7] was > 100 µM (inactive) in each case. The GI50 in [8] was > 100 µM (inactive); in assay [10], > 100 µM (inactive); in assay [11] it was 76.6 µM (inactive); in [12], > 100 µM (inactive); in assay [14], > 100 µM (inactive); in assay [15] it was > 100 µM (inactive). Moreover, the GI50 in assay [16] is > 100 µM (inactive); in assay [17], > 100 µM (inactive); in [18], > 100 µM (inactive); in [19], 33.2 µM (inactive).
